Paper PMC7357868 (ACS chemical biology, 2019)

Key:
hpol η = molecular target: T1, hpol η (Homo sapiens, UniProt Q9Y253); assay: TAMRA strand-displacement fluorescence assay of DNA polymerase activity; assay type: biochemical; conditions: 95% CI in parentheses
T1 sequence (Q9Y253 1-437): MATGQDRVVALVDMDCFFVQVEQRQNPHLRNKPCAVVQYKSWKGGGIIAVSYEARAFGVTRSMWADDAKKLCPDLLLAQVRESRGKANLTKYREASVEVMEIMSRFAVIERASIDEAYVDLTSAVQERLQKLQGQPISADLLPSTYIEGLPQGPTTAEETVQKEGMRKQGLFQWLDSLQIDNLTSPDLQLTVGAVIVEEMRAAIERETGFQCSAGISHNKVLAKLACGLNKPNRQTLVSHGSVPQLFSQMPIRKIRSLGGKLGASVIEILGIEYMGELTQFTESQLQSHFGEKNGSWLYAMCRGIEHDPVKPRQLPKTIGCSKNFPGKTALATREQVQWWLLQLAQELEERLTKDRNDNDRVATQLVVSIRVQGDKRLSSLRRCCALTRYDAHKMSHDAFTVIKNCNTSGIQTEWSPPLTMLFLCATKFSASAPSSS

[1] = system: hpol κ-deficient HAP-1 cells; assay: Clonogenic survival assay; assay type: cell-based, human
[2] = molecular target: DNA pol I from Mycobacterium tuberculosis (Tb pol I) (Mycobacterium tuberculosis, UniProt P9WNU5); assay: TAMRA strand-displacement selectivity assay, A-family pol; assay type: biochemical; conditions: 10 μM IAG-10, 10 nM Tb pol I
hpol β = hpol β (Homo sapiens, UniProt P06746); assay: TAMRA strand-displacement selectivity assay, X-family pol; assay type: biochemical; conditions: 10 μM IAG-10, 1 nM hpol β
hpol λ = molecular target: T2, hpol λ (Homo sapiens, UniProt Q9UGP5); assay: as above; assay type: biochemical; conditions: 10 μM IAG-10, 10 nM hpol λ
T2 sequence (Q9UGP5 251-575 limits assumed): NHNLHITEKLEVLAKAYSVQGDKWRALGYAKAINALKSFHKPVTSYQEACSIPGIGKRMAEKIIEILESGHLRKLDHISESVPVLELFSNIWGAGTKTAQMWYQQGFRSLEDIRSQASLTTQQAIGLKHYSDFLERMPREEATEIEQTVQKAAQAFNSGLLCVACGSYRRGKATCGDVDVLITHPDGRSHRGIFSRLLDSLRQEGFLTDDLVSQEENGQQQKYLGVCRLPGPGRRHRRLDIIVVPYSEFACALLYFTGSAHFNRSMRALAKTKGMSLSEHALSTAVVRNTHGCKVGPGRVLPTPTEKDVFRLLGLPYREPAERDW

[3] = system: hpol κ-proficient HAP-1 cells; assay: Clonogenic survival assay; assay type: cell-based, human

Sequence of DNA pol I from Mycobacterium tuberculosis (Tb pol I) (P9WNU5 whole entry): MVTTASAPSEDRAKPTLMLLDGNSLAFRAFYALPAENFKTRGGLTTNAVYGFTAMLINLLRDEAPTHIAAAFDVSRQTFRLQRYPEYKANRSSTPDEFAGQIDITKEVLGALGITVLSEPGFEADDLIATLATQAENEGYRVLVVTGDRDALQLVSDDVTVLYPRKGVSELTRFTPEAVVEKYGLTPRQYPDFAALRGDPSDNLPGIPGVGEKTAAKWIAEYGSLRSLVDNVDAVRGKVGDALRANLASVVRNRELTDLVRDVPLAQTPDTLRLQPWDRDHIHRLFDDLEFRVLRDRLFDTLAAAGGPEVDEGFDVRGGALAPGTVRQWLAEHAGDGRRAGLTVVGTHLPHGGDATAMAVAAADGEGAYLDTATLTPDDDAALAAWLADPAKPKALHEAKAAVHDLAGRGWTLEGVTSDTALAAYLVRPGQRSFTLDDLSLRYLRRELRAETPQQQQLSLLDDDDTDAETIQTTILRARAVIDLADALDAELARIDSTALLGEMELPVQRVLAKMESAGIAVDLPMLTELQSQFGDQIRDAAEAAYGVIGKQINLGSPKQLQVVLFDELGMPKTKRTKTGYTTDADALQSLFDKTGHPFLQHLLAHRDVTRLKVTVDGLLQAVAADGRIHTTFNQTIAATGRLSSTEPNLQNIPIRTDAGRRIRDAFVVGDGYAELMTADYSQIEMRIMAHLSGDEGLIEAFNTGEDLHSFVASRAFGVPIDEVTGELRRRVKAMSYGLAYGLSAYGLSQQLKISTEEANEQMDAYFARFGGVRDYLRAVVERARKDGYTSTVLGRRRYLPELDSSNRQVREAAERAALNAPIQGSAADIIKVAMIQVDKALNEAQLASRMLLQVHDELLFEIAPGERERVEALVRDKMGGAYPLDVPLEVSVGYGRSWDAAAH

Cl.[H]/N=C(\N)NN=Cc1cn(C(=O)c2cccc3ccccc23)c2ccc(Cl)cc12 [IAG-10, (E)-2-((1-(1-naphthoyl)-5-chloro-1H-indol-3-yl)-methylene)hydrazine-1-carboximidamide hydrochloride]
IC50 (hpol η; IC50, 0.2 nM hpol η, 2 nM DNA): 22.5 µM
IC50 (hpol η; IC50, 1 nM hpol η, 50 nM DNA): 14.3 µM
colony formation ([1]; 0.5 μM IAG-10 alone): does not impair colony formation
colony forming ability, cotreatment over TMZ alone ([1]; TMZ + 0.5 μM IAG-10): did not show any significant reduction
polymerase activity in presence of compound [2]: only hpol κ activity was inhibited
polymerase activity in presence of compound (hpol β): only hpol κ activity was inhibited
polymerase activity in presence of compound (hpol λ): only hpol κ activity was inhibited
colony formation ([3]; 0.5 μM IAG-10 alone): does not impair colony formation
colonies formed relative to untreated cells ([3]; 250 μM TMZ + 0.5 μM IAG-10 cotreatment, 1 h, 10 days culture): ~ 40%
